Assay results published in US9212204B2, “Treatment of rett syndrome using glycyl-L-2-methylprolyl-L-glutamic acid” (priority 2011, dated 2015).
Non-standard residues stand in square brackets, D forms with d. Residues, ends and D or L forms follow the SMILES beside them. αMeP = C[C@@]1(C(=O)O)CCCN1

Experiments:
[1] = test system: hippocampal CA1 neurons of mecp2 null mutant mice; experiment: Golgi staining, dendrite morphology in mecp2 knockout mice; type: in vivo, mouse
Protocol: We assess the effects of G-2-MePE treatment on dendrites. Transgenic mecp2 knockout mice (n=15 to 20) were administered G-2-MePE intraperitoneally at a dose of 20 mg/kg once daily. Following sacrifice dendritic spine density, spine length and aborization were examined after Golgi staining after nine weeks, as per the Table 1 below:
Dendritic length was assessed by distance from the soma of representative hippocampal CA1 neurons from 9 week old male mecp2 null mutant mice treated with either saline (3 neurons analysed from 3 separate mice, n=9) or G-2-MePE (20 mg/kg i.p. 1/day, from week 4; 3 neurons analysed from 3 separate mice, n=9).

MeCP2-/y mice = experiment: Life span of MeCP2-/y mice (Example 10); type: in vivo, mouse; details: 20 mg/kg i.p. daily; compared to MeCP2 KO littermates
Protocol: For the survival measurements, the nocturnal activity analysis and the immunoblot analysis, G-2-MePE (synthesised Albany Molecular Research Inc. (Albany, N.Y.) and supplied by Neuren Pharmaceuticals Limited) is administered daily via intra-peritoneal injections (20 mg/kg, vehicle=saline, 0.01% BSA). The treatment starts at PI 5 and is maintained throughout the course of the experiments. For intracellular physiology experiments, the mice are injected daily with G-2-MePE (20 mg/kg body weight, vehicle=saline, 0.01% BSA) for 2 weeks, from P15 to P28-P32 when they are used for acute slice preparation. For optical imaging experiments, mice are injected with G-2-MePE (20 mg/kg body weight, vehicle=saline, 0.01% BSA) daily from the day of the lid suture to the day of imaging.
To test whether G-2-MePE treatment will impact the development of cardinal features of the RTT disease, 2 week old mutant animals are given daily intra-peritoneal injections for the course of their lifespan. Measurements of synaptic physiology, synaptic molecular composition, and cortical plasticity are then acquired as detailed below, along with health-related measurements such as heart rate, locomotor activity levels, and lifespan.

[2] = test system: hippocampal slices of heterozygous Shank3-deficient mice; experiment: Shank3-deficient mouse model, hippocampal slice electrophysiology; type: in vivo; details: 15 or 60 mg/kg oral b.i.d. for 14 days
Protocol: 1 to 3 month old wild type and heterozygous Shank3-deficient mice are divided into 4 treatment groups: placebo treated wild-type, placebo treated Shank3-deficient group and two Shank3-deficient G-2-MePE treated groups. The animals are given placebo (water) or G-2-MePE formulated in water administered orally, b.i.d for 14 days. G-2-MePE is administered at two doses: 15 or 60 mg/kg.
Post-mortem, acute hippocampal slices (350 μm) are prepared from mice using a tissue chopper. Slices are maintained and experiments are conducted at 32° C. Slices are perfused with Ringer's solution containing (in mM): NaCl, 125.0; KCl, 2.5; MgSO4, 1.3; NaH2PO4, 1.0; NaHCO3, 26.2; CaCl2, 2.5; glucose, 11.0. The Ringer's solution is bubbled with 95% O2/5% CO2, at 32° C., during extracellular recordings (electrode solution: 3 M NaCl). Slices are maintained for 1 hr prior to establishment of a baseline of field excitatory postsynaptic potentials (fEPSPs) recorded from stratum radiatum in area CA1, evoked by stimulation of the Schaffer collateral-commissural afferents (100 μs pulses every 30 s) with bipolar tungsten electrodes placed into area CA3. Test stimulus intensity is adjusted to obtain fEPSPs with amplitudes that are one-half of the maximal response. The EPSP initial slope (mV/ms) is determined from the average waveform of four consecutive responses. Input-output (I/O) curves are generated by plotting the fEPSP slope versus fiber volley amplitude in low-Mg^2+ (0.1 mM) solution. AMPA receptor-mediated and NMDA receptor-mediated I/O relationships are measured in the presence of ionotropic glutamate receptor antagonists: […] APV (50 μM) and 6-cyano-7-nitroquinoxaline-2,3-dione CNQX (100 μM). Paired-pulse responses are measured with interstimulus intervals of 10 to 200 ms, and are expressed as the ratio of the average responses to the second stimulation pulse to the first stimulation pulse. […]

[3] = test system: animals with hypoxic-ischemic injuries caused by middle cerebral artery occlusion; details: MCaO; cited from earlier work
[4] = 20 mg/kg i.p. once daily, 9 weeks of age
[5] = vs placebo treated Shank3-deficient group

C[C@@]1(C(=O)N[C@@H](CCC(=O)O)C(=O)O)CCCN1C(=O)CN [Example G-2-MePE, Glycyl-L-2-methylprolyl-L-glutamic acid] (H-Gly-[αMeP]-Glu-OH)
dendritic length as a function of distance from the soma ([1]; 20 mg/kg i.p. 1/day from week 4, vs saline, FIG. 24): longer dendrites | dendritic arborization [1, 4]: improved | dendritic spine length [1, 4]: increased | increase in life expectancy (0.5 probability survival rate) (MeCP2-/y mice): ~50% | AMPA receptor-mediated field potentials [2]: normalizes | average slope of I/O function [2, 5]: increase | hippocampal long-term potentiation (LTP) and its maintenance [2, 5]: increased | non-convulsive seizures (NCS) [3]: inhibit
